Laboratory results taken from patent publication US7354904B2, “Bacteriocin inducer peptides” (priority 2005, dated 2008).

What was measured:
Format in all cases: cell-based
S. enteritidis = assay: Spot Test, antagonistic activity of isolated signal peptides; details: isolated signal peptide
Procedure: The antagonistic activity of the bacteriocins produced when using the signal peptide and an inducer strain of bacteria against C. jejuni and S. enteritidis was assessed using a Spot Test. The steps included taking various concentrations of pure preparation (μg/ml) of the bacteriocin in approximately 10 microliters of volume plated onto blood-supplemented Campylobacter agar or Nutrient agar (MPA or Meta Peptone Agar) previously seeded with cells of target bacteria. Plates containing cultures of C. jejuni were grown at about 42° C., under microaerobic conditions. Plates containing S. enteritidis were grown at about 37° C. under aerobic conditions. Activity of the bacteriocin was expressed in arbitrary units (AU) per one milliliter of the preparation at which a visible zone of inhibition of the growth of culture appears (Henderson et al., Archives of Biochemistry and Biophysics, Volume 295, 5-12, 1992; herein incorporated by reference). Specific activity can also expressed as arbitrary units per milligram of pure bacteriocin.
Its activity was about 200 AU/ml and its molecular weight was about 2.5 kDa, as determined by SDS-PAGE electrophoresis. The isoelectric point (pI) was about 7.9 (FIGS. 1A and 1B).
Its molecular weight was about 3.1 kDa as measured by SDS-PAGE and the isoelectric point (pI) was about 8.1 (FIGS. 2A and 2B).
Its molecular weight was about 2.1 kDa as determined by SDS-PAGE electrophoresis and its isoelectric point was about 8.9 (FIGS. 3A and 3B).

[1] = tested on: Streptococcus cricetus LWP 760; assay: Influence of signal peptide on bacteriocin 760 production, flask culture (fraction protein at 215 nm, activity by Spot Test against C. jejuni and S. enteritidis)
[2] = tested on: Streptococcus cricetus LWP 760; assay: Bacteriocin 760 production with signal peptide under scaled-up conditions (bioreactor); details: V-61 reactor, 10% Brucella Broth, LWP 760, LWP 320, peptide 0.22 mg added after two hours, pH 6.9, 37° C., 12 hours
[3] = LWP 760 + LWP320, 0.001 mg peptide
[4] = LWP 760 + LWP 320, 0.001 mg peptide added after about 2 hours
[5] = LWP 760 + LWP 320, 0.001 mg peptide added after about 4 hours
[6] = LWP 760 + LWP 320, 0.001 mg peptide added after about 6 hours
[7] = LWP 760 + LWP 320, 0.01 mg peptide
[8] = LWP 760 + LWP 320, 0.01 mg peptide added after about 2 hours
[9] = LWP 760 + LWP 320, 0.01 mg peptide added after about 4 hours
[10] = LWP 760 + LWP 320, 0.01 mg peptide added after about 6 hours
[11] = LWP 760 + LWP 320, 0.1 mg peptide
[12] = LWP 760 + LWP 320, 0.1 mg peptide added after about 2 hours
[13] = LWP 760 + LWP 320, 0.1 mg peptide added after about 4 hours
[14] = LWP 760 + LWP 320, 0.1 mg peptide added after about 6 hours
[15] = LWP 760, no inducer, 0.001 mg peptide
[16] = LWP 760, no inducer, 0.001 mg peptide added after about 2 hours
[17] = LWP 760, no inducer, 0.001 mg peptide added after about 4 hours
[18] = LWP 760, no inducer, 0.001 mg peptide added after about 6 hours
[19] = LWP 760, no inducer, 0.01 mg peptide
[20] = LWP 760, no inducer, 0.01 mg peptide added after about 2 hours
[21] = LWP 760, no inducer, 0.01 mg peptide added after about 4 hours
[22] = LWP 760, no inducer, 0.01 mg peptide added after about 6 hours
[23] = LWP 760, no inducer, 0.1 mg peptide
[24] = LWP 760, no inducer, 0.1 mg peptide add after about 6 hours
[25] = LWP 760, no inducer, 0.1 mg peptide added after about 2 hours
[26] = LWP 760, no inducer, 0.1 mg peptide added after about 4 hours

WNKYKTNWVLSVCNTGCACAAVKGLT (listed as Streptococcus cricetus) [LWP 760 Signal Peptide, signal peptide isolated from Streptococcus cricetus LWP 760, stimulates bacteriocin 760 production]
7: Increase in amount of protein vs. control [1, 9]
4.25: Increase in the amount of protein produced vs. in control [2]
4,201,025 Au/mg: Specific Activity [1, 7] | Specific Activity [1, 8] | Specific Activity [1, 10]
0.28 mg/mL: Protein Concentration [1, 11]
99 mg: Protein Produced from 1 liter Culture Fluid [1, 15] | Protein Produced from 1 liter Culture Fluid [1, 16] | Protein Produced from 1 liter Culture Fluid [1, 17] | Protein Produced from 1 liter Culture Fluid [1, 18] | Protein Produced from 1 liter Culture Fluid [1, 19] | Protein Produced from 1 liter Culture Fluid [1, 20] | Protein Produced from 1 liter Culture Fluid [1, 21] | Protein Produced from 1 liter Culture Fluid [1, 22]
5.2: Increase in amount of protein vs. control [1, 7] | Increase in amount of protein vs. control [1, 8] | Increase in amount of protein vs. control [1, 10]
did not possess antagonistic activity: antagonistic activity (S. enteritidis)
13,107,200 AU/ml: Activity [1, 9] | Activity [2]
693 mg: Protein Produced from 1 liter Culture Fluid [1, 9]
1.03: Increase in amount of protein vs. control [1, 23] | Increase in amount of protein vs. control [1, 24] | Increase in amount of protein vs. control [1, 25] | Increase in amount of protein vs. control [1, 26]
3,855,058 AU/mg: Specific Activity [2]
105.6 mg: Protein Produced from 1 liter Culture Fluid [1, 3] | Protein Produced from 1 liter Culture Fluid [1, 4] | Protein Produced from 1 liter Culture Fluid [1, 5] | Protein Produced from 1 liter Culture Fluid [1, 6]
6,533,600 AU/ml: Activity [1, 7]
510 mg: Protein produced per one liter of medium [2]
1: Increase in amount of protein vs. control [1, 15] | Increase in amount of protein vs. control [1, 16] | Increase in amount of protein vs. control [1, 17] | Increase in amount of protein vs. control [1, 18] | Increase in amount of protein vs. control [1, 19] | Increase in amount of protein vs. control [1, 20] | Increase in amount of protein vs. control [1, 21] | Increase in amount of protein vs. control [1, 22]
115.5 mg: Protein Produced from 1 liter Culture Fluid [1, 12] | Protein Produced from 1 liter Culture Fluid [1, 13] | Protein Produced from 1 liter Culture Fluid [1, 14]
1.56 mg/mL: Protein Concentration [1, 7] | Protein Concentration [1, 8] | Protein Concentration [1, 10]
6,553,600 AU/ml: Activity [1, 8] | Activity [1, 10]
92.4 mg: Protein Produced from 1 liter Culture Fluid [1, 11]
2.1 mg/mL: Protein Concentration [1, 9]
3.4 mg/mL: Protein Concentration [2]
5,121,375 Au/mg: Specific Activity [1, 3] | Specific Activity [1, 4] | Specific Activity [1, 5] | Specific Activity [1, 6]
1,638,840 AU/ml: Activity [1, 3] | Activity [1, 4] | Activity [1, 5] | Activity [1, 6] | Activity [1, 11] | Activity [1, 12] | Activity [1, 13] | Activity [1, 14] | Activity [1, 15] | Activity [1, 16] | Activity [1, 17] | Activity [1, 18] | Activity [1, 19] | Activity [1, 20] | Activity [1, 21] | Activity [1, 22] | Activity [1, 23] | Activity [1, 24] | Activity [1, 25]
0.3 mg/mL: Protein Concentration [1, 19]
0.32 mg/mL: Protein Concentration [1, 3] | Protein Concentration [1, 4] | Protein Concentration [1, 5] | Protein Concentration [1, 6]
5,462,666 Au/mg: Specific Activity [1, 15] | Specific Activity [1, 16] | Specific Activity [1, 17] | Specific Activity [1, 18] | Specific Activity [1, 19] | Specific Activity [1, 20] | Specific Activity [1, 21] | Specific Activity [1, 22]
0.30 mg/mL: Protein Concentration [1, 15] | Protein Concentration [1, 16] | Protein Concentration [1, 17] | Protein Concentration [1, 18] | Protein Concentration [1, 20] | Protein Concentration [1, 21] | Protein Concentration [1, 22]
102.3 mg: Protein Produced from 1 liter Culture Fluid [1, 23] | Protein Produced from 1 liter Culture Fluid [1, 24] | Protein Produced from 1 liter Culture Fluid [1, 25] | Protein Produced from 1 liter Culture Fluid [1, 26]
1.06: Increase in amount of protein vs. control [1, 3] | Increase in amount of protein vs. control [1, 4] | Increase in amount of protein vs. control [1, 5] | Increase in amount of protein vs. control [1, 6]
0.35 mg/mL: Protein Concentration [1, 12] | Protein Concentration [1, 13] | Protein Concentration [1, 14]
6,241,523 Au/mg: Specific Activity [1, 9]
514.8 mg: Protein Produced from 1 liter Culture Fluid [1, 7] | Protein Produced from 1 liter Culture Fluid [1, 8] | Protein Produced from 1 liter Culture Fluid [1, 10]
approximately 693 Mg: Protein Produced from 1 liter Culture Fluid ([1]; LWP 760 + LWP 320, 0.01 mg peptide added after about 4 hours, listed as signal peptide from LWP 760)
5,286,580 Au/mg: Specific Activity [1, 23] | Specific Activity [1, 24] | Specific Activity [1, 25] | Specific Activity [1, 26]
5,853,000 Au/mg: Specific Activity [1, 11]
1.16: Increase in amount of protein vs. control [1, 12] | Increase in amount of protein vs. control [1, 13] | Increase in amount of protein vs. control [1, 14]
0.9: Increase in amount of protein vs. control [1, 11]
4,682,400 Au/mg: Specific Activity [1, 12] | Specific Activity [1, 13] | Specific Activity [1, 14]
0.31 mg/mL: Protein Concentration [1, 23] | Protein Concentration [1, 24] | Protein Concentration [1, 25] | Protein Concentration [1, 26]
